For assay [1], the target named is T1, SaMetRS (Staphylococcus aureus, UniProt P67578).
T1 construct: full-length SaMetRS (SaMetRS-FL) (residues 1–657) was expressed and purified in the same manner; made in house; host or cells: E. coli BL21 (DE3)
The experiment in a line: biochemical. The assay is classed as binding. The procedure: Ligand binding usually stabilizes the protein during the thermal denaturation process, and a tighter binder causes a larger positive shift in the protein melting temperature (Tm) ([38]). The binding of ligands to SaMetRS was evaluated by the fluorescence-based thermal shift assay as described ([39]). Briefly, mixtures with a final volume of 20 μl that contained 4 μg of SaMetRS-FL, 4 × SYPRO orange fluorescence dye (Sigma-Aldrich) and different ligands (10 μM REP8839, 5 mM L-Met, 5 mM ATP, or 1 mM fragments) in TSA buffer (100 mM Tris pH 8.0, 150 mM NaCl) were prepared in 96-well plates. The mixtures were incubated at 25°C for 10 min and then heated from 25°C to 95°C at a rate of 1°C/min. The fluorescence intensity was recorded every 20 s by using a StepOnePlus Real-Time PCR instrument (Life Technologies). The melting curves, using the fluorescence signal as the ordinate and the temperature as the abscissa, were fitted by using StepOne™ software v2.3 to obtain the melting temperature (Tm) of the protein. Triplicate assays were performed, and the average Tm values were used. The thermal stabilization of SaMetRS that was caused by a ligand (a fragment, substrate or inhibitor) was termed ΔTm, and it was calculated by subtracting the Tm of SaMetRS without the ligand from the Tm of SaMetRS supplemented with the ligand as follows:
Fragment screening is a fast-growing strategy for designing drugs with novel scaffolds as well as for identifying new druggable sites ([51],[52]). A total of 1049 fragments or low molecular weight natural products were screened by using TSA to search for new binders to SaMetRS. Considering the potential beneficial effect of ATP on ligand binding to SaMetRS, a parallel experiment was carried out using SaMetRS, which was saturated with 5 mM ATP. Fragments were diluted to a final concentration of 1.0 mM. The Tm of apo or ATP-bound SaMetRS without adding fragments was used as a blank control, and REP8839 was used as a positive control. We considered fragments that could increase the Tm value of SaMetRS by more than 1.0°C (ΔTm > 1.0°C) as positive hits (Figure 4B).

Assay [2] has as its target T1, SaMetRS. Kind of assay: pretransfer editing assay (malachite green). In kind it is biochemical. The procedure:
A pretransfer editing assay was employed to evaluate the enzymatic activity of MetRS and the inhibitory activity of fragments to this enzyme. MetRS uses ATP to misactivate the noncognate L-norleucine (L-Norleu) to produce norleucyl adenylate and pyrophosphate (PPi). Norleucyl adenylate was hydrolyzed in the active site through pretransfer editing, and PPi was hydrolyzed by pyrophosphatase (PPiase). The pretransfer editing activity of MetRS was evaluated by measuring phosphate ion (Pi) production using a malachite green assay ([40],[41]). The assays were performed in 80 μl reaction mixtures consisting of 160 nM SaMetRS-FL or SaMetRS-dC or HcMetRS-dN or HcMetRS-dN/C, 100 μM ATP, 20 mM L-Norleu and 50 μg/ml PPiase in reaction buffer (30 mM HEPES pH 7.5, 150 mM NaCl, 30 mM KCl, 40 mM MgCl2, 1 mM DTT) at room temperature ([42]). The pyrophosphates released from the pretransfer editing reaction were decomposed into phosphates by PPiase. Then, 20 μl of malachite green reagent (2.45 M sulfuric acid, 0.1% w/v malachite green, 1.5% w/v ammonium molybdate tetrahydrate, and 0.2% v/v Tween 20) was added to each reaction, and the absorbance at 620 nm was recorded using a Synergy H1 microplate reader.
To measure the inhibitory activity of compounds against SaMetRS, the reactions of an 80 μl mixture consisting of 160 nM SaMetRS-FL (or HcMetRS-dN), 100 μM ATP, 20 mM L-norleucine, 50 μg/ml PPiase and 1 mM fragment (or inhibitor at different concentrations) in reaction buffer were incubated at room temperature for 30 min. Then, 20 μl of malachite green reagent was added to each reaction, and absorbance at 620 nm was recorded. The absorbance at 620 nm of the reaction without adding a compound (fragment or inhibitor) was A1, the absorbance of the reaction without adding MetRS was A0, and the absorbance of the reaction with adding a compound (fragment or inhibitor) was AC. The inhibitory rates of compounds on enzyme activity = (A1 – AC)/(A1 – A0) ×100%. For compounds P80, P21 and REP8839, the inhibitory rates were measured at various concentrations, and the data were fitted in GraphPad Prism 8 using the ‘log[inhibitor] versus response’ equation to calculate the IC50 values.
The inhibitory rates of these fragments against SaMetRS were then tested by a pretransfer editing assay. In the assay, MetRS used ATP to misactivate noncognate L-norleucine (L-Norleu) to produce norleucyl adenylate and PPi. The norleucyl adenylate was then quickly hydrolyzed (or ‘edited’) by MetRS in a tRNA-independent manner ([53–55]). In addition, PPi is hydrolyzed by pyrophosphatase, and phosphate production reflects the activity of MetRS in L-Norleu misactivation and pretransfer editing.

Assay [3] deals with T1, SaMetRS. The experiment in a line: isothermal titration calorimetry (ITC) assay. In kind it is binding. As for the experimental part:
The affinities of ligands to SaMetRS were measured by using a MicroCal PEAQ-ITC microcalorimeter. […] The interval between two injections was 150 s. The disassociation constants (Kd) were determined by fitting the calorimetric data to a one-site binding model by using MicroCal PEAQ-ITC analysis software.
In general terms: Isothermal titration calorimetry measures the heat released or taken up as one component is titrated into another.

The target in assay [4] is T2, HcMetRS (Homo sapiens, UniProt P56192).
T2 construct: a truncated HcMetRS without the N-terminal part (HcMetRS-dN) (residues 221–900); His6-SUMO (N, cleaved yes); made in house; host or cells: E. coli BL21 (DE3)
T2 sequence (P56192 221-900): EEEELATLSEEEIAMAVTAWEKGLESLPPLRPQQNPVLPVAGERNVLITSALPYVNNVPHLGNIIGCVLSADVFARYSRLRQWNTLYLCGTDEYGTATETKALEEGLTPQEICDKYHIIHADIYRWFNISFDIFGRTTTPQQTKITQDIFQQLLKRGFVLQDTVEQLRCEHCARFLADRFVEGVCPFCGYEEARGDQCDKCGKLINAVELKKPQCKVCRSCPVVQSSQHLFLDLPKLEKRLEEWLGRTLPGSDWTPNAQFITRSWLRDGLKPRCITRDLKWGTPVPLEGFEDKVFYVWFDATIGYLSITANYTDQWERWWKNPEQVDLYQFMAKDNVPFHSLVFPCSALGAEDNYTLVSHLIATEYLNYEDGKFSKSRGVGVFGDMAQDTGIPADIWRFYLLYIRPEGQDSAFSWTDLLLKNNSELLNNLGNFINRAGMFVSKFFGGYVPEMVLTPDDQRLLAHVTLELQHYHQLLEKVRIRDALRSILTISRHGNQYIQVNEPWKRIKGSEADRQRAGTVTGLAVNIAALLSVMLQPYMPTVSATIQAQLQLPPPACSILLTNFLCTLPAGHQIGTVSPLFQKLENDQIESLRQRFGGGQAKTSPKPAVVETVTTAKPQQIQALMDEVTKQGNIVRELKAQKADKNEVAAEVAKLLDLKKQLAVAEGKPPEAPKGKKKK
Kind of assay: tRNA-dependent ATP consumption assay. The assay is classed as biochemical. To be noted: HcMetRS-dN, even at high concentrations. The procedure: (§1) The inhibitory activity of the compounds against the tRNA aminoacylation reaction of MetRS was evaluated by employing an ATP consumption assay ([43],[44]). In brief, 10 μl reactions consisting of 50 nM SaMetRS-FL or 100 nM HcMetRS-dN, 4 μM ATP, 500 μM L-Met, 0.5 mg/ml E. coli total tRNA in reaction buffer (30 mM HEPES pH 7.5, 150 mM NaCl, 30 mM KCl, 40 mM MgCl2, 0.1% BSA and 1 mM DTT) and compounds (P80, P21 and REP8839) at various concentrations were prepared and incubated at room temperature for 30 min. The reactions were then stopped by adding 10 μl of Kinase-Glo™ Reagent (Promega) and incubated at room temperature for 15 min. The luminescence, which reflects the concentration of the remaining ATP, was read on a Synergy H1 microplate reader (BioTek). The luminescence of the reaction without adding a compound was Lum1, the absorbance of the reaction without adding MetRS was Lum0, and the luminescence of the reaction with the added compound was LumC. The inhibitory rates of a compound on enzyme activity = (LumC – Lum1)/(Lum0 – Lum1) × 100%. The data were fitted in GraphPad Prism 8 with the ‘log[compound] versus response’ equation to calculate the IC50 values.

Assay [5] has as its target T1, SaMetRS. Kind of assay: tRNA-dependent ATP consumption assay. In kind it is biochemical. The procedure:
as §1

[6] abbreviates: read-out: ΔTm (°C) Tm(Frg)-Tm(apo).
The mark [7] stands for this setting: read-out: ΔTm (°C) Tm(Frg+ATP)-Tm(ATP).

The values that follow come from paper PMC9071491, “Fragment screening and structural analyses highlight the ATP-assisted ligand binding for inhibitor discovery against type 1 methionyl-tRNA synthetase” (Nucleic Acids Research, 2022).

Read-outs that look alike come from different tables or passages of the source. A value given as a limit tells only on which side of the number the result lay.

T1 sequence (P67578 whole entry, the tested form may be a part): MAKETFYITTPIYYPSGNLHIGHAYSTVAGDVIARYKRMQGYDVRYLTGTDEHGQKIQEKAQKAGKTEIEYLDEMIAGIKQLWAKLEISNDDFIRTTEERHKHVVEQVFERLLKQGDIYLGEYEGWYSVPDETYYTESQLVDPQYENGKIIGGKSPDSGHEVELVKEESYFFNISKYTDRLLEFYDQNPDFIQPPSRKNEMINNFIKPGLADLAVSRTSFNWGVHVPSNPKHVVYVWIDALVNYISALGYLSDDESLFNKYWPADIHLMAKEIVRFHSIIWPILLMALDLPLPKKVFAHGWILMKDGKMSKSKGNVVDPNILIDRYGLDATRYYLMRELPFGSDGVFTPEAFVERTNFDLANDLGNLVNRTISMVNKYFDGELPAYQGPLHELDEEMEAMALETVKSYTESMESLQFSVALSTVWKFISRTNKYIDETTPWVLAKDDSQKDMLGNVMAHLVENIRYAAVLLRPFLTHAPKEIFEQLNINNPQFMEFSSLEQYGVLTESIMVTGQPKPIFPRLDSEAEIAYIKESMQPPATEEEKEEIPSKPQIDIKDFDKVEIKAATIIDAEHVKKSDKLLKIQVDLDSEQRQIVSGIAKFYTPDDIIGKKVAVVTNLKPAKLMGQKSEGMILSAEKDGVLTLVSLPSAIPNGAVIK

For orientation: ΔTm means the change in melting temperature against a reference sample. As to `C=C(F)c1sc(CNCCCNc2cc(O)c3ccccc3n2)c(C)c1Br` [REP8839, reference compound], the shift in melting temperature (ΔTm) at 10 µM in assay [1] (setting [6]) came to 11.8 °C; in assay [1] (setting [7]), 17.5 °C. Besides, the inhibition at 10 µM in assay [2] (read-out: Inhibitory rate (%)) is > 99%.

In general, Kd refers to the concentration at which binding is half-saturated. Regarding `CC(C)(C)Sc1cccnc1N` [T2-15], the ΔTm at 1000 µM in assay [1] (setting [6]) and in assay [1] (setting [7]) was 2.5 °C in each case. For the same molecule, the inhibition at 1000 µM in assay [2] (read-out: Inhibitory rate (%)) was 65.3 ± 3.1%. The Kd was 78.7 ± 7.1 µM in assay [3] (SaMetRS apo, without ATP, 25°C, read-out: Kd, fragment to SaMetRS alone) and 54.6 ± 2.6 µM in assay [3] (SaMetRS preincubated with 5 mM ATP, 25°C, read-out: Kd, fragment to SaMetRS saturated with ATP).

With `Nc1nc2ccccc2[nH]1` [M1-68], the ΔTm at 1000 µM in assay [1] (setting [6]) was 0.1 °C; in assay [1] (setting [7]), 1.3 °C. The inhibition at 1000 µM in assay [2] (read-out: Inhibitory rate (%)) was < 20%.

On to `NCc1c[nH]c2ccccc12` [B63], for which the ΔTm at 1000 µM in assay [1] (setting [6]) is 0.8 °C; in assay [1] (setting [7]) it was 1.7 °C. Besides, in assay [2] (read-out: Inhibitory rate (%)), the inhibition at 1000 µM came to 38.2 ± 3.5%.

For `NC1Cc2ccccc2C1` [M2-80], the ΔTm at 1000 µM in assay [1] (setting [6]) is -0.1 °C; in assay [1] (setting [7]), 2.5 °C. The inhibition at 1000 µM in assay [2] (read-out: Inhibitory rate (%)) was < 20%.

The IC50 is the point on the concentration scale where inhibition reaches its midpoint. With `CNC(=O)c1ccc2c(c1)nc(-c1ccc(Br)c(O)c1)n2C(CNC(=O)COc1ccccc1C(C)(C)C)c1ccc(OC)c(OC)c1` (centres unmarked) [P80], the half-inhibitory concentration (IC50) in assay [2] was found to be 0.0946 ± 0.0067 µM; in assay [5] it was 0.223 ± 0.0123 µM. The “inhibition of HcMetRS” value in assay [4] was “did not significantly inhibit”.

Consider `O=[N+]([O-])c1ccc2[nH]ncc2c1` [B128], for which the values for the ΔTm at 1000 µM in assay [1] (setting [6]) and in assay [1] (setting [7]) were 1.3 °C and 2.1 °C, respectively. Moreover, the inhibition at 1000 µM in assay [2] (read-out: Inhibitory rate (%)) was found to be 30.4 ± 1.9%.

`Nc1ncnc2c1ncn2[C@@H]1O[C@H](COP(=O)(O)OP(=O)(O)OP(=O)(O)O)[C@@H](O)[C@H]1O` [ATP]: in assay [3] (SaMetRS premixed with M3-88 vs apo), the “fold more potent Kd of ATP with M3-88 premixed versus apo protein” value is given as “approximately 4 fold”. Moreover, the Kd in assay [3] (apo protein, 25°C, read-out: Kd, ATP to SaMetRS) is 52 ± 6.7 µM; in assay [3] (read-out: Kd, ATP to SaMetRS saturated with M3-88, SaMetRS preincubated with 5 mM M3-88, 25°C) it was 14.1 ± 0.7 µM.

`Clc1cn2ccsc2n1` [M3-146]: the ΔTm at 1000 µM in assay [1] (setting [6]) is -0.1 °C; in assay [1] (setting [7]), 1.8 °C. Further, the inhibition at 1000 µM in assay [2] (read-out: Inhibitory rate (%)) was < 20%.

`CNC(=O)c1ccc2c(c1)nc(-c1ccc(Br)c(O)c1)n2C(CNC(=O)OCc1ccccc1)c1ccc(OC)c(OC)c1` (centres unmarked) [P21]: the IC50 in assay [2] amounted to 0.428 ± 0.053 µM; in assay [5] (50 nM SaMetRS-FL, 4 μM ATP, 500 μM L-Met, read-out: IC50, ATP consumption assay), 3.11 ± 0.48 µM. Besides, in assay [4], the “inhibition of HcMetRS” value is on record as “did not significantly inhibit”.

For `O=[N+]([O-])c1ccc(O)c(O)c1` [A6], the figures for the ΔTm at 1000 µM in assay [1] (setting [6]) and in assay [1] (setting [7]) were 1.1 °C and 1.2 °C, respectively. In addition, the inhibition at 1000 µM in assay [2] (read-out: Inhibitory rate (%)) was < 20%.

For the molecule `NCCNc1cccc2ccccc12` [M2-293], the ΔTm at 1000 µM in assay [1] (setting [7]) worked out at 1.3 °C. Moreover, the inhibition at 1000 µM in assay [2] (read-out: Inhibitory rate (%)) was 67.3 ± 1.1%.

Consider `N[C@@H]1C[C@@H]1c1ccccc1` [B54], for which the inhibition at 1000 µM in assay [2] (read-out: Inhibitory rate (%)) was < 20%.
